Reference: ChEMBL document CHEMBL1150550, “A novel condensed tropone-isoquinoline alkaloid, pareitropone, from Cissampelos pareira” (Bioorg Med Chem Lett, 1995)
Values after ≈ are worked out from the molar mass of the structure shown.

Test system: P388
Assay: Cytotoxicity against cultured p-388 cells
Type: functional, cell-based
Conditions: Mus musculus

Structure (SMILES)	IC50 [µg/mL]
COc1cc2ccnc3c2c(c1OC)-c1ccc(=O)ccc1-3 [PAREITROPONE]	0.0008 (≈ 0.00275 µM)
COc1c(OC)c2c3c(nccc3c1OC)-c1cc(OC)c(=O)ccc1-2	1.2 (≈ 3.42 µM)
COc1c(OC)c2c3c(nccc3c1OC)-c1cc(O)c(=O)ccc1-2 [GRANDIRUBRINE]	0.18 (≈ 0.534 µM)
